Measured values from US20110002995A1, “PHARMACEUTICAL COMPOSITION FOR THE TREATMENT AND PREVENTION OF CARDIAC DISEASE” (MAZENCE INC., priority 2007, published 2011).

Legend:
[1] = tested on: TAC-induced heart hypertrophy; assay: Inhibitory effect on heart hypertrophy, TAC model (Experimental Example 1); type: in vivo, C57BL/6J male mice
Experimental: (§1) 8-week-old C57BL/6J male mice (n=40, 20-23 g, SLC, Japan) were purchased and subjected to transverse aortic constriction (TAC).
(§2) The thorax was incised and the thymus was removed.
(§3) 5 weeks after the operation of TAC for the heart failure model, a difference of a fractional shortening (F.S) value (%) with the control group was confirmed using echocardiogram, and the degree of heart failure induction and therapeutic effects were then determined.
(§4) Further, left ventricular end-diastolic and systolic diameters were measured according to the standard method of the American Society for Echocardiography. Fractional shortening (%) which is an indicator of the ventricular contractility is calculated according to the following equation.
(§5) F.S=(left ventricular end-diastolic diameter)−(left ventricular end-systolic diameter)/left ventricular end-diastolic diameter
(§6) Among compounds of Formula 1, inhibitory effects of 7,8-dihydro-2,2-dimethyl-2H-naphtho(2,3-b)dihydropyran-7,8-dione (hereinafter, referred to as “MB660”) on heart hypertrophy and heart failure were examined.
(§7) 2 days after TAC treatment, animals were given test samples. Induction of heart hypertrophy was carried out over 2 weeks after TAC treatment. Induction of heart failure was carried out over 5 weeks after TAC treatment.

[2] = tested on: TAC-induced heart failure; assay: Inhibitory effect on heart failure, TAC model (Experimental Example 1); type: in vivo, C57BL/6J male mice
Experimental: as §1, §2, §3, §4, §5, §6, §7

[3] = tested on: TAC-induced heart hypertrophy; assay: Reversal of heart hypertrophy, TAC model (Experimental Example 2); type: in vivo, C57BL/6J male mice; conditions: 150 mg/kg for 4 weeks, starting 2 weeks after TAC
Experimental: as §1, §2, §3, §4, §5
(§8) In order to measure effects of MB660 on the reversal of heart hypertrophy and heart failure, the experiment was carried out as follows.
(§9) After induction of heart hypertrophy (2 weeks after TAC treatment) and heart failure (5 weeks after TAC treatment), animals were given test samples for 4 weeks.

[4] = tested on: TAC-induced heart failure; assay: Reversal of heart failure, TAC model (Experimental Example 2); type: in vivo, C57BL/6J male mice; conditions: 150 mg/kg for 4 weeks, starting 5 weeks after TAC
Experimental: as §1, §2, §3, §4, §5, §8, §9

[5] = tested on: TAC-induced heart hypertrophy; assay: Changes of heart size in heart hypertrophy model (Experimental Example 4); type: in vivo, C57BL/6J male mice; conditions: 150 mg/kg orally for two weeks from one week after TAC, heart excised three weeks after TAC, FIG. 15
Text: as §2
In order to examine changes of heart size in response to the administration of MB660, experimental animals were divided into four groups as given in Table 4 below:
One week after TAC treatment, animals were orally given MB660 for two weeks. Three weeks after TAC treatment, animals were sacrificed and the heart was excised, followed by size examination.

[6] = tested on: cardiomyocytic mitochondria, TAC-induced heart hypertrophy; assay: Mitochondrial changes of cardiomyocytes in heart hypertrophy model (Experimental Example 5); type: in vivo, C57BL/6J mice; conditions: orally for 4 weeks after induction of heart hypertrophy (2 weeks after TAC), transmission electron microscope, FIG. 16
Text: (§10) Animals were orally given test samples for 4 weeks after induction of heart hypertrophy (2 weeks after TAC treatment) and heart failure (5 weeks after TAC treatment). The left ventricular myocardial tissues of animals were fixed in 2.5% glutaraldehyde to prepare tissue sections, and mitochondrial morphological changes were examined under a transmission electron microscope.
(§11) In C57BL/6J mice with TAC-induced heart hypertrophy and heart failure, alterations in cardiomyocytic mitochondria in response to the administration of MB660 were observed.

[7] = tested on: cardiomyocytic mitochondria, TAC-induced heart failure; assay: Mitochondrial changes of cardiomyocytes in heart failure model (Experimental Example 5); type: in vivo, C57BL/6J mice; conditions: orally for 4 weeks after induction of heart failure (5 weeks after TAC), transmission electron microscope, FIG. 17
Text: as §10, §11

[8] = tested on: TAC-induced heart hypertrophy; conditions: FIG. 14
Text: For the operation of TAC, C57BL/6 male mice were anesthetized with an intraperitoneal injection of a liquid anesthetic (ketamine:xylazine=20:1, kg/ml), and a 22-gauge IV catheter needle was placed into the trachea, followed by connection with a ventilator (Harvard Apparatus) for artificial forcible respiration. The thorax was incised and the thymus was removed. Following the removal of the thymus, the transverse aorta between the right subclavian artery and the left subclavian artery was banded (7-0, silk) with an overlaying blunted 27-gauge needle, and then the needle was quickly removed to create a defined constriction. The thorax was sutured with (5-0) silk to complete the surgery, and respiration of animals was then confirmed.
A ratio of heart weight (HW) to body weight (BW) (HW/BW ratio) and a ratio of heart weight (HW) to tibia length (HW/TL ratio) were respectively estimated using echocardiogram.
2 days after the operation of TAC, animals were orally given test samples for 2 weeks.

Compound: CC1(C)CCc2cc3c(cc2O1)=CC(=O)C(=O)C=3 [MB660, 7,8-dihydro-2,2-dimethyl-2H-naphtho(2,3-b)dihydropyran-7,8-dione]
- HW/BW ratio vs non-MB660 treated TAC group ([1]; TAC MB(+), 150 mg/kg, given from 2 days after TAC, hypertrophy induced over 2 weeks, FIG. 1): significantly low value of heart hypertrophy
- HW/TL ratio vs non-MB660 treated TAC group ([1]; TAC MB(+), 150 mg/kg, given from 2 days after TAC, hypertrophy induced over 2 weeks, FIG. 2): significantly low value of heart hypertrophy
- fractional shortening vs non-MB660 treated group ([1]; echocardiogram, heart hypertrophy-induced model, FIG. 3): significant increase
- HW/BW ratio vs non-MB660 treated group ([2]; TAC MB(+), 150 mg/kg, given from 2 days after TAC, heart failure induced over 5 weeks, FIG. 4): significantly low values
- HW/TL ratio vs non-MB660 treated group ([2]; TAC MB(+), 150 mg/kg, given from 2 days after TAC, heart failure induced over 5 weeks, FIG. 5): significantly low values
- fractional shortening vs non-MB660 treated group ([2]; echocardiogram, heart failure-induced model): significantly increased
- HW/BW lower than the non-MB660 treated group ([3]; FIG. 7): ≥ 30%
- HW/BW value ([3]; FIG. 7): 6.23
- HW/TL lower than the non-MB660 treated group ([3]; FIG. 8): about 25%
- HW/TL value ([3]; FIG. 8): 7.68
- fractional shortening vs non-MB660 treated group ([3]; FIG. 9): significant increase
- HW/BW ratio vs control group ([4]; FIG. 10): low values
- HW/TL ratio vs control group ([4]; FIG. 11): low values
- fractional shortening vs control group ([4]; FIG. 12): significant increase
- heart size, TAC group vs non-administered TAC control [5]: significant decrease of the heart size
- mitochondrial function/morphology of cardiomyocytes [6]: returned to the original condition
- mitochondrial function/morphology of cardiomyocytes [7]: returned to the original condition
- HW/BW ratio vs control group (TAC) ([8]; 30, 60, 100, 150 mg/kg orally for 2 weeks from 2 days after TAC): significant decrease
- HW/BW ratio, dependence on dose ([8]; 30 to 150 mg/kg orally for 2 weeks): generally decreased with an increasing dose
- HW/BW ratio at 60 mg compared to the group with 30 mg ([8]; orally for 2 weeks): increased
